From ChEMBL document CHEMBL1201862, “PubChem BioAssay data set” (2004)
Activity calls are given as the source filed them.

Columns and labels:
Cytochrome P450 3A4 = Cytochrome P450 3A4 (Homo sapiens, UniProt P08684); details: Potency;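 also: confirmatory qHTS run detecting inhibitors and substrates of CYP3A4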
[1] = target: T1, Corticotropin-releasing factor receptor 2/Corticotropin-releasing factor-binding protein (Homo sapiens, UniProt P24387+Q13324); experiment: activators of CRF receptor 2 with binding protein – uHTS hits, confirmation (AID 602473); type: functional; details: read-out: EC50_Mean
T1 sequence (Q13324 whole entry): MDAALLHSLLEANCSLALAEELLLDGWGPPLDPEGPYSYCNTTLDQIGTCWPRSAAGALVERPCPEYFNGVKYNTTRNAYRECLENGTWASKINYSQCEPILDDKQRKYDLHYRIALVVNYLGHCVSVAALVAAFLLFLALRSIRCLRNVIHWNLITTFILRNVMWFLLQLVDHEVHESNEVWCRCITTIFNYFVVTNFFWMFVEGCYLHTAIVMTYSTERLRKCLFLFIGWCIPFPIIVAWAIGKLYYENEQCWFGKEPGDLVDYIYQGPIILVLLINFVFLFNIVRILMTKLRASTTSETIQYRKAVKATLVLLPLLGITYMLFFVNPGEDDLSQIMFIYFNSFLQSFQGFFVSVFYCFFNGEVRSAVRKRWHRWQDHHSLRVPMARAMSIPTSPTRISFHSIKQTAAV
T1 sequence (P24387 whole entry): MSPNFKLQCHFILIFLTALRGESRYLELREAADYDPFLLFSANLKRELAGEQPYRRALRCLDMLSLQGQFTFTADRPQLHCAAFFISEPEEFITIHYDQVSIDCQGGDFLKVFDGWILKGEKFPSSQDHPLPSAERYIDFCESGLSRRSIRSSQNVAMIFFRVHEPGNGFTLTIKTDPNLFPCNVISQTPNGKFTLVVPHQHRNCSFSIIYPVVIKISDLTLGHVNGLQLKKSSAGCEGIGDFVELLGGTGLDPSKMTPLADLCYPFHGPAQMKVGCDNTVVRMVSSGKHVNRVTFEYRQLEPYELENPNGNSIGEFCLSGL

[2] = target: T1, Corticotropin-releasing factor receptor 2/Corticotropin-releasing factor-binding protein; experiment: Dose Response confirmation of uHTS hits for small molecule antagonists of the CRF-binding protein and CRF-R2 receptor complex.; type: functional; details: read-out: IC50_Mean
cells = type: functional
[3] = P. falciparum Dd2 growth inhibitors, dose response, SYBR Green, cherry-picked samples (AID 1159567); type: functional, cell-based
[4] = target: Luciferin 4-monooxygenase (Photinus pyralis, UniProt P08659); experiment: inhibition of purified Photinus pyralis luciferase – biochemical, luminescence, dose response (AID 1891)
Luciferin 4-monooxygenase, sequence (P08659 whole entry): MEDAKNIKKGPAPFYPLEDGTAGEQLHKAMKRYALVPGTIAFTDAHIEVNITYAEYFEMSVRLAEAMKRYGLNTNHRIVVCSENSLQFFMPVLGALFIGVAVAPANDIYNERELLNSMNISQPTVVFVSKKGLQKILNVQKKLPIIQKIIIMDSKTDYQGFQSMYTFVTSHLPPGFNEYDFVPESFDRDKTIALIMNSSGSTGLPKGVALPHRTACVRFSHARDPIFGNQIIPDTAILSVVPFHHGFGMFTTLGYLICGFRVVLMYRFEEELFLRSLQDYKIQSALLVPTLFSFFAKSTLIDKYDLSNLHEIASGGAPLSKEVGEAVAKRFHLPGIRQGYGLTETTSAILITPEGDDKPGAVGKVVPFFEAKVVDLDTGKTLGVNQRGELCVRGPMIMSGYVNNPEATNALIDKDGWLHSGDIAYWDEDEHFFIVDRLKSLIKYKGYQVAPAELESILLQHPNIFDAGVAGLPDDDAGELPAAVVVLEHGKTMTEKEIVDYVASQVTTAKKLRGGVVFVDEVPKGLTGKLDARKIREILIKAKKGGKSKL

[5] = Luminescence Cell-Based Dose Confirmation HTS to Identify Inhibitors of Platelet Dense Granule Release. [Related pubchem assays: 1663 (Primary HTS), 1678 (Summary of Project)]; type: functional
[6] = target: FAD-linked sulfhydryl oxidase ALR (Homo sapiens, UniProt P55789); experiment: ALR-catalysed DTT oxidation blockers – biochemical, H2O2 detection, luminescence, cherry-pick, dose response (AID 493248)
FAD-linked sulfhydryl oxidase ALR, sequence (P55789 whole entry): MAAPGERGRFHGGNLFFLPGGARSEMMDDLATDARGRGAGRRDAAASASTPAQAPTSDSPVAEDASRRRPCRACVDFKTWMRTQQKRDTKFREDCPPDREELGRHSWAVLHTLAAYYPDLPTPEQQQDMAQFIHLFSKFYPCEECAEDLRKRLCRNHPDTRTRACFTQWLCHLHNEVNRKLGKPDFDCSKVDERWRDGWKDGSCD

[7] = target: T2, Ubiquitin-conjugating enzyme E2 N (Homo sapiens, UniProt P61088); type: functional;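 also: Dose-response confirmation in a TR-FRET assay detecting UBC13-driven polyubiquitin chain formation, inhibition measured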
T2 sequence (P61088 whole entry): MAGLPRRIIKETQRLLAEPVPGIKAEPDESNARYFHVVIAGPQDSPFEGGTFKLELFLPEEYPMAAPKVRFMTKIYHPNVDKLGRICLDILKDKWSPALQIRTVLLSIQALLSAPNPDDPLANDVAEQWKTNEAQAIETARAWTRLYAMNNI

[8] = intracellular Trypanosoma cruzi inhibitors in host cells – cell-based, plate reader, cherry-pick samples, set 3, dose response (AID 651818); type: functional;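 also: compounds incubated with infected cells for about four days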
[9] = NIH3T3 cell viability loss – ATP luminescence, mouse fibroblasts, counter-screen, dose response (AID 2010); type: functional, cell-based;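 also: cells exposed to compound for about 90 hours before reading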
[10] = Trypanosoma cruzi growth suppression in host cells – NIH3T3 host cells, beta-gal luminescence, confirmation (AID 2044); type: functional, cell-based;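 also: intracellular parasites grown in NIH/3T3 mouse fibroblasts as host cells; luminescent beta-galactosidase reporter signal from transgenic T. cruzi replicating inside host cells; inhibitors lower the luminescence signal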
Paired box protein Pax-8 = Paired box protein Pax-8 (Homo sapiens, UniProt Q06710); experiment: PAX8 transcriptional activity inhibition in RMG-I – RMG-I cells, luciferase, cherry-pick, dose response (AID 687027); type: functional, cell-based;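 also: luciferase reporter driven by Pax8 target thyroperoxidase promoter measured by SteadyGlo luminescence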
Paired box protein Pax-8, sequence (Q06710 whole entry): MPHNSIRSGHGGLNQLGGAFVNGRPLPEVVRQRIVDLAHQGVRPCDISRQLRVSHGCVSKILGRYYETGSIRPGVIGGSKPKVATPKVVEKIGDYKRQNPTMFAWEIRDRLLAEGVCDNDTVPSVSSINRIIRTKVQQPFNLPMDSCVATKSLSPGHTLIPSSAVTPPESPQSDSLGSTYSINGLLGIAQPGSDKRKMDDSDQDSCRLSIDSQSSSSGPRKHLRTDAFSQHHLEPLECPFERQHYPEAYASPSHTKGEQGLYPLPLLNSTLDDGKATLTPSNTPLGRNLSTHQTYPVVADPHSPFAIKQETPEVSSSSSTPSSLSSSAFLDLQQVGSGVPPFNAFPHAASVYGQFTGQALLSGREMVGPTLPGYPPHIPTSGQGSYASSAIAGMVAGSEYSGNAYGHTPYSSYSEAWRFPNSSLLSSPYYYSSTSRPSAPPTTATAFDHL

[11] = OVCAR-3 cell viability loss – plate reader, dry powder samples, PAX8 inhibitor project, dose response (AID 743044); type: functional, cell-based
[12] = toxicity toward HepG2 liver cells – cell-based, plate reader, cherry-pick, antagonist series, cytotoxicity control, dose response (AID 743416); type: functional
[13] = OVCAR8 cell viability loss – plate reader, dry powder samples, PAX8 project, dose response (AID 743197); type: functional, cell-based; details: OVCAR-8
[14] = blockers of HIV-1 envelope-mediated cell-cell fusion – cherry-pick, dose response (AID 652057); type: functional, cell-based
[15] = HIV-1 AD8 envelope cell-cell fusion blockers – cherry-pick, dose response (AID 652062); type: functional, cell-based;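 also: luciferase signal from cell-cell fusion driven by HIV-1 clade B AD8 Env; potency is for inhibitors of fusion seen as a drop in luminescence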

Cytochrome P450 3A4, sequence (P08684 whole entry): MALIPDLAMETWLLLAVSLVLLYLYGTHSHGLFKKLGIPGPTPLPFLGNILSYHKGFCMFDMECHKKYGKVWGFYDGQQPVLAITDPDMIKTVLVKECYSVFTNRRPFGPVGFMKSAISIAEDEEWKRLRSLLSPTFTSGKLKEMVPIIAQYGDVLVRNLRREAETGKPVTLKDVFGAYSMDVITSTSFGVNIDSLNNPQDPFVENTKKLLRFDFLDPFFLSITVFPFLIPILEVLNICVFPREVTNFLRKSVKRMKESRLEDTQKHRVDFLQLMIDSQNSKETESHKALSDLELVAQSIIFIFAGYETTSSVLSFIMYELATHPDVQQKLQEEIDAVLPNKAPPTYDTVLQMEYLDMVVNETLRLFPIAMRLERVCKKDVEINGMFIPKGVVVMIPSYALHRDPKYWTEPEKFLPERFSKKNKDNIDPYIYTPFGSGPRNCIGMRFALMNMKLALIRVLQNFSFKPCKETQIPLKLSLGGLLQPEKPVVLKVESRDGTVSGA

## Cc1cc(O)c(C=O)c2c1C(=O)Oc1c(C)c(O)c3c(c1O2)C(O)OC3=O (centres undefined) [NORSTICTIC ACID]
Cytochrome P450 3A4
  AC50: 39.8 µM (inconclusive)

## Cc1c(N)cccc1N
Cytochrome P450 3A4
  AC50: 15.8 µM (inconclusive)

## COc1ccc(OC2C(=O)N(Cc3ccc(F)cc3)C2c2cc(OC)c(OC)c(OC)c2)cc1 (centres undefined)
[1]
  EC50: > 53 µM (inactive)
[2]
  IC50: > 47.1 µM (inactive)

## Cc1ccccc1C(=O)NN1CC(C(=O)OCc2ccc(Cl)c(Cl)c2)CC1=O (centres undefined)
cells
  IC50: 22.2 µM (active)

## CCC(=O)N1CC2(C1)CN(C(=O)Nc1ccccc1F)[C@H](CO)c1[nH]c3cc(OC)ccc3c12
[3]
  AC50: 15.9 µM (active)

## CCOc1ccc(CCNC(=O)C2CCCN(c3ncnc4c3nc3n4CCCCC3)C2)cc1 (centres undefined)
[1]
  EC50: > 53 µM (inactive)
[2]
  IC50: > 47.1 µM (inactive)

## COc1cc(CN2CCNC(=O)C2CC(=O)NCCCN2CCOCC2)cc(OC)c1 (centres undefined)
[4]
  EC50: > 112 µM (not active)
[5]
  EC50: > 112 µM (not active)

## CN(C)c1ccc(/C(=N\O)c2ccccc2)cc1
[1]
  EC50: > 53 µM (inactive)
[2]
  IC50: > 47.1 µM (inactive)
[6]
  AC50: 1.64 µM (active)

## CCC(C)[C@H]1CN=C(N)N1CCc1cc(C(F)(F)F)cc(C(F)(F)F)c1 (some centres undefined)
[7]
  IC50: > 20 µM (inactive)

## CCN(CC(=O)Nc1ccccc1C(F)(F)F)C(=O)CCc1c(C)nc(O)c(C#N)c1C
[4]
  EC50: > 112 µM (not active)
[5]
  EC50: 2.71 µM (active)

## CC1=CC2=NC(=O)/C(=C\c3ccc(OC(=O)c4ccco4)cc3)C(=N)N2O1
cells
  IC50: 21.8 µM (active)

## C[C@@H]1CCCCO[C@@H](CN(C)Cc2ccc(Cl)c(Cl)c2)[C@@H](C)CN([C@H](C)CO)C(=O)c2cc(NC(=O)Nc3ccc(C(F)(F)F)cc3)ccc2O1
[8]
  AC50: 2.84 µM (active)

## O=C(O)C(c1ccccc1)C1(O)CCCC1 (centres undefined)
[1]
  EC50: > 53 µM (inactive)
[2]
  IC50: > 47.1 µM (inactive)

## C[C@@H]1CN([C@@H](C)CO)C(=O)c2cccc(NC(=O)Nc3ccc(C(F)(F)F)cc3)c2O[C@H]1CN(C)C(=O)Nc1ccc(C(F)(F)F)cc1
[8]
  AC50: 6.06 µM (active)

## CCC(Oc1cc(Cl)ccc1Cl)C(=O)NNC(=O)CCC(=O)O (centres undefined)
[4]
  EC50: > 112 µM (not active)
[5]
  EC50: > 112 µM (not active)

## C[C@H](CO)N1C[C@H](C)[C@H](CN(C)Cc2ccc(C(F)(F)F)cc2)Oc2ccc(NS(=O)(=O)c3ccc(Cl)cc3)cc2C1=O
[8]
  AC50: 4.5 µM (active)

## CN(C)c1ccc(CN(C(=O)c2ccccc2Br)C2CCS(=O)(=O)C2)cc1 (centres undefined)
[6]
  AC50: 1.88 µM (active)

## CCCCN(C)CCCNC(=O)c1cc(-c2cccs2)nc2ccccc12
[7]
  IC50: > 20 µM (inactive)
[9]
  EC50: > 60 µM (not active)
[10]
  EC50: 0.183 µM (active)

## CC1(C)Cc2c(sc(/N=C/N3CCCC3)c2C#N)C(C)(C)N1
[1]
  EC50: > 53 µM (inactive)
[2]
  IC50: > 47.1 µM (inactive)

## C[C@@H]1CCCCO[C@H](CN(C)Cc2ccncc2)[C@H](C)CN([C@H](C)CO)C(=O)c2cc(NC(=O)Nc3ccc(C(F)(F)F)cc3)ccc2O1
Paired box protein Pax-8
  AC50: 7.43 µM (active)
[11]
  AC50: 35.4 µM (active)

## Cc1nc2sc(C(c3ccccc3)N3CCN(c4ccccc4F)CC3)c(O)n2n1 (centres undefined)
[4]
  EC50: > 112 µM (not active)
[5]
  EC50: > 112 µM (not active)

## COc1cccc(CNC(=O)c2cc(S(=O)(=O)N3CCCC3)cn2C)c1
[4]
  EC50: > 112 µM (not active)
[5]
  EC50: > 112 µM (not active)

## COc1ccc(NC(=O)N(C)C[C@@H]2Oc3cc(-c4ccc(C)cc4)ccc3S(=O)(=O)N([C@H](C)CO)C[C@H]2C)cc1
[3]
  AC50: 3.38 µM (active)

## CSc1ccccc1OCc1cc(C(=O)NCc2csc(C(C)C)n2)no1
[1]
  EC50: > 53 µM (inactive)
[2]
  IC50: > 47.1 µM (inactive)

## CN1CCN(S(=O)(=O)c2cccc([N+](=O)[O-])c2)CC1
[4]
  EC50: > 112 µM (not active)
[5]
  EC50: > 112 µM (not active)

## COCC#Cc1ccc2c(c1)O[C@H](CN(C)S(=O)(=O)c1cccc(F)c1)[C@@H](C)CN([C@H](C)CO)S2(=O)=O
[12]
  AC50: > 52 µM (inactive)

## COc1ccccc1S(=O)(=O)N(C)C[C@@H]1Oc2cc(C#CCC(C)C)ccc2S(=O)(=O)N([C@@H](C)CO)C[C@@H]1C
[3]
  AC50: 3.17 µM (active)

## Nc1ncc([N+](=O)[O-])cc1S(=O)(=O)c1ccccc1
[7]
  IC50: > 20 µM (inactive)

## C[C@@H]1CCCCO[C@@H](CN(C)Cc2ccc(Cl)c(Cl)c2)[C@@H](C)CN([C@H](C)CO)C(=O)c2cc(NC(=O)CCC(F)(F)F)ccc2O1
[8]
  AC50: 3.1 µM (active)

## COC(=O)c1cc(-c2cccs2)nc2ccccc12
[7]
  IC50: > 20 µM (inactive)

## COc1ccc(S(=O)(=O)Nc2ccc3c(c2)CC(=O)N([C@H](C)CO)C[C@@H](C)[C@@H](CN(C)Cc2ccc(Cl)c(Cl)c2)O3)cc1
[8]
  AC50: 3.78 µM (active)

## C[C@@H]1CCCCO[C@H](CN(C)C(=O)Nc2ccc3c(c2)OCO3)[C@@H](C)CN([C@H](C)CO)C(=O)c2cc(NC(=O)Nc3ccc(C(F)(F)F)cc3)ccc2O1
[8]
  AC50: 2.56 µM (active)

## C[C@@H]1CN([C@@H](C)CO)C(=O)c2cccc(NS(=O)(=O)c3ccccc3)c2O[C@H]1CN(C)Cc1ccc(-c2ccccc2)cc1
[8]
  AC50: 1.39 µM (active)

## CCC(C)NC(=O)CSc1nc2ccccc2c(=O)n1CCCC(=O)NCC1CCCO1 (centres undefined)
[1]
  EC50: > 53 µM (inactive)
[2]
  IC50: > 47.1 µM (inactive)

## Cc1nnc(NC(=O)c2ccc3ccccc3c2)o1
cells
  IC50: 1.64 µM (active)

## COC(=O)c1ccc(=O)n(-c2ccc(OC)cc2)c1
[4]
  EC50: > 112 µM (not active)
[5]
  EC50: > 112 µM (not active)

## COC(=O)c1c(C(=O)OC)c(-c2ccc(F)cc2)n2c1CSC2
[6]
  AC50: 0.218 µM (active)

## COc1ccc(N2CCN(c3ccc(C(=O)O)cc3[N+](=O)[O-])CC2)cc1
[6]
  AC50: 5.03 µM (active)

## CCC(C)Nc1nc2c(c(=O)n(C)c(=O)n2C)n1Cc1ccc(F)cc1 (centres undefined)
[6]
  AC50: 2.09 µM (active)

## O=C(c1ccncc1)N1CCN(C(=O)c2cccc3ccccc23)CC1
[4]
  EC50: > 112 µM (not active)
[5]
  EC50: 16.6 µM (active)

## CC(C)OC(=O)c1cc(C(=O)c2cc(Cl)ccc2O)coc1=N
cells
  IC50: 23.2 µM (active)

## C[C@@H]1CN([C@H](C)CO)C(=O)c2cc(NC(=O)Nc3cccc4ccccc34)ccc2O[C@@H]1CN(C)C(=O)Nc1cccc2ccccc12
Paired box protein Pax-8
  AC50: 6.15 µM (active)
[13]
  AC50: 46.1 µM (active)
[11]
  AC50: 49.7 µM (active)

## Cc1ccc(C(=O)NCCN2C3=NC[C@H](Cc4ccc(O)cc4)N3C[C@H]2Cc2ccc(O)cc2)cc1Br
[7]
  IC50: > 20 µM (inactive)

## Cc1nn(-c2cccc([N+](=O)[O-])c2)c(N)c1-c1ccccc1
[1]
  EC50: > 53 µM (inactive)
[2]
  IC50: > 47.1 µM (inactive)

## CCCC(=O)Nc1ccc(-c2csc(NNC(C)=O)n2)cc1
[6]
  AC50: 0.859 µM (active)

## c1ccc2cc(OCCCn3ccnc3)ccc2c1
cells
  IC50: 42.5 µM (active)
[9]
  EC50: > 60 µM (not active)
[10]
  EC50: 1.01 µM (active)

## CN1C(=O)C2(c3ccccc31)N(C)CC(c1ccccc1)C21SC(=S)N(Cc2ccco2)C1=O (centres undefined)
[14]
  AC50: 46.4 µM (active)
[15]
  AC50: 36.5 µM (active)

## C#CCOCCOCCOCCNc1nc(N2CCN(C(=O)[C@H](CCCCN)n3cc([C@@H](N)[C@H](C)CC)nn3)CC2)nc(N2CCN(C(=O)[C@H](CCC(=O)O)n3cc([C@@H](N)CCCCN)nn3)CC2)n1
[7]
  IC50: > 20 µM (inactive)

## C[C@H]1CN([C@@H](C)CO)C(=O)Cc2cc(NC(=O)NC3CCCCC3)ccc2O[C@@H]1CN(C)Cc1ccc(Cl)c(Cl)c1
[8]
  AC50: 7.18 µM (active)
